From patent US20250002492A1, “COMPOSITIONS OF FOLATE ABSORPTION INHIBITORS AND METHODS THEREOF” (THE TEXAS A&M UNIVERSITY SYSTEM, priority 2023, published 2025)

Molecular target: T1, Folate Uptake Transporter (PCFT) in Caco2 cells (Homo sapiens, UniProt Q96NT5)
T1 construct: These cells express high levels of the PCFT/SLC46A1 receptor; host or cells: Caco-2
T1 sequence (Q96NT5 1-459): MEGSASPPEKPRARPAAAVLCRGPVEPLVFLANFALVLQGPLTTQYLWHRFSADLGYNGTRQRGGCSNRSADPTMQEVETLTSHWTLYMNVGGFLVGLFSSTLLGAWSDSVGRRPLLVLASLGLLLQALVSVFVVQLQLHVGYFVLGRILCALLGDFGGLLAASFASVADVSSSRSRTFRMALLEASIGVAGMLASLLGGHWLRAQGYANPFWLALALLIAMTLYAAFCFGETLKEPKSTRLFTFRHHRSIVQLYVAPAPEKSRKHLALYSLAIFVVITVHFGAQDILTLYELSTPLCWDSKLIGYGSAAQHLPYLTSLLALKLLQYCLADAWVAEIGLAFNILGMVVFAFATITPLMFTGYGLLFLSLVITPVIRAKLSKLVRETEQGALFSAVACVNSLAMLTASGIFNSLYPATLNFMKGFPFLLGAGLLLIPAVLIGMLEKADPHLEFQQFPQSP
Test: Folate uptake transporter inhibition in Caco2 cell line ([3H]-folic acid uptake)
Assay type: cell-based
Procedure: Cell plates were prepared using Caco-2 cell culture medium consisting of Dulbecco's Modified Eagle's Medium (DMEM) with high glucose and L-glutamine supplemented with: 10% FBS, 1× penicillin-streptomycin mixture and 1×non-essential amino acids (NEAA) and medium was incubated at 37° C., 5% CO2 for 0.5 hour. Plates were prepared for cell seeding. Caco-2 cells from American Type Culture Collection at passage 44 were cultivated in T-75 flasks in a cell culture incubator set at 37° C., 5% CO2, 95% relative humidity. Cells reached 80-90% confluence before detaching and splitting. Cultivated cells in T-75 flasks were rinsed with 5 mL PBS and aspirated off. Then, 3 mL trypsin/EDTA was added, and cells were incubated at 37° C. for approximately 5 minutes or until the cells detached and floated. Trypsin/EDTA was inactivate by adding excess serum containing medium. Cell suspension was removed and transferred to a conical tube and cells were pelleted by centrifugation at 120×g for 5 minutes. Cells were resuspended in seeding medium at a density of 3×10^4 cells/well in 24-well plates. The plate was incubated for 8-10 days. The medium was replaced every other day, beginning no sooner than 48 hours after initial plating.
The transport buffer (HBSS with 10 mM MES, pH 5.5) was prepared by weighing 1.952 g of MES and 0.35 g sodium hydrogen carbonate and adding into 900 mL of pure water followed by sonication to dissolve the content. Following the transfer of 100 mL of 10×HBSS into the solution. The solution was placed on a stirrer, the pH was slowly adjusted with hydrochloric acid to 5.5, and then the solution was filtered to get HBSS solution (with 10 mM MES, pH 5.5).
The [3H]-folic acid (10 nM) substrate solution was prepared using [3H]-folic acid (1 mCi/ml) diluted with pH 5.5 buffer. Next, the [3H]-folic acid (10 nM) substrate solution+test inhibitor (X μM) and the [3H]-folic acid (10 nM) substrate solution+positive control inhibitor (pemetrexed, 50 μM) were prepared. For the solution without inhibitor, DMSO was diluted with corresponding substrate solution to get the working incubation solution.
The pre-incubation solution was prepared by adding the same final concentration of test compound (X μM) and the known inhibitor (pemetrexed, 50 μM) in pH 5.5 buffer. For the solution without inhibitor, DMSO diluted with in pH 5.5 buffer was used as the vehicle control.
When the 8-10 day Caco-2 cultured cells reached confluence and were differentiated, they were ready to be used for transport studies. The Caco-2 plate was removed from the incubator, and the medium was removed from the 24-well Plates. Next, cells were washed 3 times with 300 μL of pre-warmed pH 5.5 buffer. Then, 300 μL of pre-incubation solution was added into each well and the plate was placed at 37° C. for 30 minutes. The assay was performed in duplicate. After 30 minutes pre-incubation, the pre-incubation solution was aspirated, and 300 μL of pre-warmed working incubation solution was added to start the transporter assay. After 6 minutes incubation, cells were washed by quickly adding/aspirating 300 μL of ice-cold pH 5.5 buffer 4 times. The pH 5.5 buffer was removed and 300 μL of pure water was added into each well. Freeze-thaw in liquid nitrogen and 37° C. incubator was repeated for 3 times to lyse cells. After, centrifugation at 3,300 g was performed for 30 seconds. Next, 50 μL of supernatant was transferred to Isoplate-96 Microplate. 200 μL of scintillation fluid was added to the 50 μL sample and radioactivity was measured by liquid scintillation counting in a MicroBeta 2 scintillation counter for 1 min/sample.
A BCA Kit was used to determine the protein content for each well. Bovine serum albumin at 2, 1, 0.5, 0.25, 0.125, 0.0625, 0.0313, 0.0156, 0.00781 and 0.00391 mg/mL was prepared in Phosphate Buffer Saline (PBS, pH 7.4). 10 μL of supernatant was mixed from the previous step with the same volume of PBS. […]

inhibition at 50 µM (Caco-2, pH 5.5, test conc. 50 μM, [3H]-folic acid 10 nM, 30 min pre-incubation, 6 min incubation, read-out: Percentage inhibition (%)): 42.3%
effect on folate transport / uptake (Caco-2 cells, 50 μM, pH 5.5): inhibit folate uptake
Compound: CC(=O)N1CCC(C(=O)N2CCN3C(=O)c4cc(-c5ccccc5)ccc4NC(=O)C3C2)CC1 (centres unmarked) [MPOL_B_1, 2-(1-acetylpiperidine-4-carbonyl)-8-phenyl-1,3,4,12a-tetrahydrobenzo[e]pyrazino[1,2-a][1,4]diazepine-6,12(2H,11H)-dione]
